Converted amounts (≈) assume the structure as drawn. Read-outs that look alike come from different tables or passages of the source.
Key:
[1] = system: TOSV; test: microbe, parasite or virus in culture; assay type: cell-based, Toscana virus; details: Toscana virus, Vero C1008, read-out: IC50 (TOSV)
[2] = system: HAZV; test: microbe, parasite or virus in culture; assay type: cell-based; details: Hazara virus, Vero C1008, read-out: IC50 HAZV
[3] = system: RVFV; test: microbe, parasite or virus in culture; assay type: cell-based; details: Rift Valley fever virus, Vero C1008, read-out: IC50 RVFV
[4] = system: YFV; test: microbe, parasite or virus in culture; assay type: cell-based; details: Yellow fever virus, Vero C1008, read-out: IC50 YFV
[5] = system: DENV; test: Virus yield reduction assay, DENV in Vero E6 cells; assay type: cell-based; details: Dengue virus, Vero C1008; Simian Vero E6 cells; FLAVI virus family
[6] = system: TBEV; test: microbe, parasite or virus in culture; assay type: cell-based; details: Tick-borne encephalitis virus, Vero C1008, read-out: IC50 TBEV
[7] = system: ZIKV; test: Virus yield reduction assay, ZIKV in Vero E6 cells; assay type: cell-based; details: Zika virus, Vero C1008; Simian Vero E6 cells; FLAVI virus family
[8] = system: VEEV; test: microbe, parasite or virus in culture; assay type: cell-based; details: Venezuelan equine encephalitis virus, Vero C1008, read-out: IC50 VEEV
[9] = system: RVFV; test: microbe, parasite or virus in culture; assay type: cell-based; details: Rift Valley fever virus, BHK-21, in Mesocricetus auratus, read-out: IC50 RVFV
[10] = system: YFV; test: microbe, parasite or virus in culture; assay type: cell-based; details: Yellow fever virus, BHK-21, in Mesocricetus auratus, read-out: IC50 YFV
[11] = system: RVFV; test: microbe, parasite or virus in culture; assay type: cell-based; details: Rift Valley fever virus, SW13, read-out: IC50 RVFV
[12] = system: TBEV; test: microbe, parasite or virus in culture; assay type: cell-based; details: Tick-borne encephalitis virus, SW13, read-out: IC50 TBEV
[13] = system: VEEV; test: microbe, parasite or virus in culture; assay type: cell-based; details: Venezuelan equine encephalitis virus, SW13, read-out: IC50 VEEV
[14] = system: RVFV; test: microbe, parasite or virus in culture; assay type: cell-based; details: Rift Valley fever virus, HEK293, read-out: IC50 RVFV
[15] = system: TBEV; test: microbe, parasite or virus in culture; assay type: cell-based; details: Tick-borne encephalitis virus, HEK293, read-out: IC50 TBEV
[16] = system: VEEV; test: microbe, parasite or virus in culture; assay type: cell-based; details: Venezuelan equine encephalitis virus, HEK293, read-out: IC50 VEEV
[17] = Plasma stability; details: 1 μm, 37° C., mouse plasma diluted with 1 volume of PBS pH 7.4
[18] = Solubility in PBS pH 7.4; details: PBS pH 7.4, 20 °C, pH 7.4, aqueous buffer
[19] = Hepatic microsome stability; details: 1 μm, 37° C., 0.5 mg/mL microsomes of mouse liver; cofactor: NADPH
[20] = Cytotoxicity assay, SW13 cells; details: human
[21] = Cytotoxicity assay, BHK-21 cells; details: hamster, BHK-21 cells, CC50, Hamster BHK-21 cells; value repeated under each virus
[22] = system: BHK-21; test: Cytotoxicity assay, BHK-21 cells; details: Hamster BHK-21 cells; value repeated under each virus
[23] = Cytotoxicity assay (CellTiter-Blue), Vero E6 cells; details: monkey (simian), Vero E6 cells, CC50, Simian Vero E6 cells; value repeated under each virus

CCCCCc1ccc(C#Cc2ccc(NC(=O)C(C)C)c(C(=O)O)c2)cc1 [Example 9, 2-Isobutyramido-5-((4-pentylphenyl)ethynyl)benzoic acid] showed an IC50 [1] of 0.01 µM, an IC50 [2] of 0.012 µM and an IC50 [3] of 0.01 µM. For the same compound, the IC50 [4] was 0.016 µM, the IC50 [5] was 0.023 µM and the IC50 [6] was 0.0117 µM. It also gave an IC50 [7] of 0.023 µM, an IC50 [8] of 0.0107 µM and an IC50 [9] of 0.043 µM. For the same compound, the IC50 [10] was 0.055 µM, the IC50 [11] was 0.011 µM and the IC50 [12] was 0.014 µM. For the same compound, the IC50 [13] was 0.014 µM, the IC50 [14] was under 0.0016 µM and the IC50 [15] was 0.0044 µM. The IC50 [16] was 0.0015 µM, the “Plasma stability [% remaining at 2 h]” value [17] was 98 ± 3 % remaining at 2 h and the solubility [18] was 13 ± 6 µM (≈ 4.91 µg/mL). The “Hepatic microsome stability [% remaining at 1 h]” value [19] was 45 ± 8 % remaining at 1 h, the CC50 [20] was 17 µM and the CC50 [21] was 50 µM. The CC50 [22] was 55 µM and the CC50 at 4 days [23] was 4 µM.
